Legend:
Details in all cases: human; call rule not given here
Hepatotoxicity [1] = test: FDA HLAED, liver enzyme composite activity
Hepatotoxicity [2] = test: FDA HLAED, alkaline phosphatase increase
Hepatotoxicity [3] = test: FDA HLAED, serum glutamic oxaloacetic transaminase (SGOT) increase
Hepatotoxicity [4] = test: FDA HLAED, serum glutamic pyruvic transaminase (SGPT) increase
Hepatotoxicity [5] = test: FDA HLAED, lactate dehydrogenase (LDH) increase
Hepatotoxicity [6] = test: FDA HLAED, gamma-glutamyl transferase (GGT) increase
For GGT Increase - Index Value in this document: reference of the scale not given here.
For LDH Increase - Index Value in this document: reference of the scale not given here.

| Compound | Composite Activity - Active (Hepatotoxicity [1]) | Composite Activity - Marginal (Hepatotoxicity [1]) | Composite Activity - Score (Hepatotoxicity [1]) | Alkaline Phosphatase Increase - Activity Score (Hepatotoxicity [2]) | Alkaline Phosphatase Increase - Index Value (Hepatotoxicity [2]) | Alkaline Phosphatase Increase - Number of Reports (Hepatotoxicity [2]) | SGOT Increase - Activity Score (Hepatotoxicity [3]) | SGOT Increase - Index Value (Hepatotoxicity [3]) | SGOT Increase - Number of Reports (Hepatotoxicity [3]) | SGPT Increase - Activity Score (Hepatotoxicity [4]) | SGPT Increase - Index Value (Hepatotoxicity [4]) | SGPT Increase - Number of Reports (Hepatotoxicity [4]) | LDH Increase - Activity Score (Hepatotoxicity [5]) | LDH Increase - Index Value (Hepatotoxicity [5]) | LDH Increase - Number of Reports (Hepatotoxicity [5]) | GGT Increase - Activity Score (Hepatotoxicity [6]) | GGT Increase - Index Value (Hepatotoxicity [6]) | GGT Increase - Number of Reports (Hepatotoxicity [6]) | further results |
| --- | --- | --- | --- | --- | --- | --- | --- | --- | --- | --- | --- | --- | --- | --- | --- | --- | --- | --- | --- |
| C[C@]12CC[C@@H]3c4ccc(O)cc4CC[C@H]3[C@@H]1CC[C@@H]2O [ESTRADIOL] | 0 | 0 | Inactive | Inactive | 1.5 | >= 4 | Inactive | 2.8 | >= 4 | Inactive | 2.1 | >= 4 | Inactive | 1.2 | >= 4 | Inactive | 0.3 | < 4 |  |
| C[C@]12CC[C@@H]3c4ccc(OC(=O)N(CCCl)CCCl)cc4CC[C@H]3[C@@H]1CC[C@@H]2O [ESTRAMUSTINE] | 1 | 0 | Inactive | Active | 43.7 | < 4 | Inactive | 0 | < 4 | Inactive | 0 | < 4 | Inactive | 0 | < 4 | Inactive | 0 | < 4 |  |
| CCc1cccc2c3c([nH]c12)C(CC)(CC(=O)O)OCC3 (stereo unspecified) [ETODOLAC] | 0 | 0 | Inactive | Inactive | 0.8 | >= 4 | Inactive | 1.1 | >= 4 | Inactive | 1.4 | >= 4 | Inactive | 0.6 | >= 4 | Inactive | 0.8 | >= 4 |  |
| CCOC(=O)c1cncn1[C@H](C)c1ccccc1 [ETOMIDATE] | 0 | 0 | Inactive | Inactive | 0 | < 4 | Inactive | 0 | < 4 | Inactive | 0 | < 4 | Inactive | 0 | < 4 | Inactive | 0 | < 4 |  |
| COc1cc([C@@H]2c3cc4c(cc3[C@@H](O[C@@H]3O[C@@H]5CO[C@@H](C)O[C@H]5[C@H](O)[C@H]3O)[C@H]3COC(=O)[C@H]23)OCO4)cc(OC)c1O [ETOPOSIDE] |  |  |  | Inactive | 0.8 | < 4 | Inactive | 0.4 | < 4 | Inactive | 0 | < 4 | Inactive | 0.4 | < 4 | Inactive | 0 | < 4 | Composite Activity - Active (Hepatotoxicity [1]; Liver): 0; Composite Activity - Marginal (Hepatotoxicity [1]; Liver): 0; Composite Activity - Score (Hepatotoxicity [1]; Liver): Inactive |
| CCOC(=O)/C=C(C)/C=C/C=C(C)/C=C/c1c(C)cc(OC)c(C)c1C [ETRETINATE] | 2 | 1 | Active | Active | 5.3 | >= 4 | Active | 5.3 | >= 4 | Marginally Active | 3.2 | >= 4 | Inactive | 2.9 | >= 4 | Inactive | 0.6 | < 4 |  |
| CC(=O)OCC(CCn1cnc2cnc(N)nc21)COC(C)=O [FAMCICLOVIR] | 0 | 0 | Inactive | Inactive | 0 | < 4 | Inactive | 0 | < 4 | Inactive | 0 | < 4 | Inactive | 0 | < 4 | Inactive | 0 | < 4 |  |
| NC(N)=Nc1nc(CSCCC(N)=NS(N)(=O)=O)cs1 [FAMOTIDINE] |  |  |  | Inactive | 0.8 | >= 4 | Inactive | 0.8 | >= 4 | Inactive | 0.7 | >= 4 | Inactive | 0.4 | >= 4 | Inactive | 0.4 | >= 4 | Composite Activity - Active (Hepatotoxicity [1]; Liver): 0; Composite Activity - Marginal (Hepatotoxicity [1]; Liver): 0; Composite Activity - Score (Hepatotoxicity [1]; Liver): Inactive |
| NC(=O)OCC(COC(N)=O)c1ccccc1 [FELBAMATE] | 5 | 0 | Active | Active | 15 | >= 4 | Active | 11.7 | >= 4 | Active | 11.7 | >= 4 | Active | 8.3 | >= 4 | Active | 15.8 | >= 4 |  |
| CCOC(=O)C1=C(C)NC(C)=C(C(=O)OC)C1c1cccc(Cl)c1Cl (stereo unspecified) [FELODIPINE] | 0 | 0 | Inactive | Inactive | 0.6 | < 4 | Inactive | 0.3 | < 4 | Inactive | 0.3 | < 4 | Inactive | 0.3 | < 4 | Inactive | 0.3 | < 4 |  |
| CC(C)(C(=O)O)c1ccc(C(O)CCCN2CCC(C(O)(c3ccccc3)c3ccccc3)CC2)cc1 (stereo unspecified) [FEXOFENADINE] |  |  |  | Inactive | 0 | < 4 | Inactive | 0 | < 4 | Inactive | 0 | < 4 | Inactive | 0 | < 4 | Inactive | 0 | < 4 | Composite Activity - Active (Hepatotoxicity [1]; Liver): 0; Composite Activity - Marginal (Hepatotoxicity [1]; Liver): 0; Composite Activity - Score (Hepatotoxicity [1]; Liver): Inactive |
| CC(C)(C)NC(=O)[C@H]1CC[C@H]2[C@@H]3CC[C@H]4NC(=O)C=C[C@]4(C)[C@H]3CC[C@]12C [FINASTERIDE] | 0 | 0 | Inactive | Inactive | 2.5 | >= 4 | Inactive | 2.7 | >= 4 | Inactive | 2.7 | >= 4 | Inactive | 1.1 | >= 4 | Inactive | 1 | >= 4 |  |

From ChEMBL document CHEMBL1697781, “Assessment of the health effects of chemicals in humans: II. Construction of an adverse effects database for QSAR modeling” (Curr Drug Discov Technol, 2004)
